The values below come from patent US8476430B2, “Fused heterocyclic compounds useful as kinase modulators” (Bristol-Myers Squibb Company, priority 2008, dated 2013).

One assay concerns Ramos RA1 B cells. The experiment in a line: Ramos FLIPR assay. The class given is cell-based. The following applies: Homo sapiens, inhibition of peak intracellular calcium after F(ab')2 anti-IgM/IgG stimulation, read-out: Human Ramos Cell FLIPR (IC50 μM). The procedure: Ramos RA1 B cells (ATCC® CRL-1596) at a density of 2×10^6 cells/ml in RPMI minus phenol red (Invitrogen 11835-030) and 50 mM HEPES (Invitrogen 15630-130) containing 0.1% BSA (Sigma A8577) were added to one half volume of calcium loading buffer (BD bulk kit for probenecid sensitive assays, #640177) and incubated at room temperature in the dark for 1 hour. Dye-loaded cells were pelleted (Beckmann GS-CKR, 1200 rpm, RT, 5 minutes) and resuspended in RT RPMI minus phenol red with 50 mM HEPES and 10% FBS to a density of 1×10^6 cells/ml. 150 μl aliquots (150,000/well) were plated into 96 well poly-D-lysine coated assay plates (BD 35 4640) and briefly centrifuged (Beckmann GS-CKR 800 rpm, 5 minutes, without brake). 50 μal compound dilutions in 0.4% DMSO/RPMI minus phenol red+50 mM HEPES+10% FBS were added to the wells and the plate was incubated at RT in the dark for 1 hour. Assay plate was briefly centrifuged as above prior to measuring calcium levels.
Using the FLIPR1 (Molecular devices), cells were stimulated by adding 50 μl 200 μg/ml F(ab′)2 anti-IgM/IgG (Jackson ImmunoResearch 109-006-127) diluted in 1×HBSS (Invitrogen 14025-076), 50 mM HEPES, 0.1% BSA. Changes in intracellular calcium concentrations were measured for 180 seconds and percent inhibition was determined relative to peak calcium levels seen in the presence of F(ab′)2 anti-IgM/IgG only.

A further assay addresses T1, human recombinant Btk (Homo sapiens, UniProt Q06187).
T1 construct: purchased Invitrogen Corporation
The experiment in a line: Human recombinant Btk enzyme assay. The class given is biochemical. The following applies: human recombinant Btk 1 nM, ATP 20 μM, 60 min room temperature. The procedure: Human Recombinant Btk Enzyme Assay
To V-bottom 384-well plates were added test compounds, human recombinant Btk (1 nM, Invitrogen Corporation), fluoresceinated peptide (1.5 μM), ATP (20 μM), and assay buffer (20 mM HEPES pH 7.4, 10 mM MgCl2, 0.015% Brij35 and 4 mM DTT in 1.6% DMSO), with a final volume of 30 μL. After incubating at room temperature for 60 min, the reaction was terminated by adding 45 μl of 35 mM EDTA to each sample. The reaction mixture was analyzed on the Caliper LABCHIP® 3000 (Caliper, Hopkinton, Mass.) by electrophoretic separation of the fluorescent substrate and phosphorylated product. Inhibition data were calculated by comparison to no enzyme control reactions for 100% inhibition and no inhibitor controls for 0% inhibition. Dose response curves were generated to determine the concentration required inhibiting 50% of kinase activity (IC50). Compounds were dissolved at 10 mM in dimethylsulfoxide (DMSO) and evaluated at eleven concentrations.

T1 sequence (Q06187 whole entry): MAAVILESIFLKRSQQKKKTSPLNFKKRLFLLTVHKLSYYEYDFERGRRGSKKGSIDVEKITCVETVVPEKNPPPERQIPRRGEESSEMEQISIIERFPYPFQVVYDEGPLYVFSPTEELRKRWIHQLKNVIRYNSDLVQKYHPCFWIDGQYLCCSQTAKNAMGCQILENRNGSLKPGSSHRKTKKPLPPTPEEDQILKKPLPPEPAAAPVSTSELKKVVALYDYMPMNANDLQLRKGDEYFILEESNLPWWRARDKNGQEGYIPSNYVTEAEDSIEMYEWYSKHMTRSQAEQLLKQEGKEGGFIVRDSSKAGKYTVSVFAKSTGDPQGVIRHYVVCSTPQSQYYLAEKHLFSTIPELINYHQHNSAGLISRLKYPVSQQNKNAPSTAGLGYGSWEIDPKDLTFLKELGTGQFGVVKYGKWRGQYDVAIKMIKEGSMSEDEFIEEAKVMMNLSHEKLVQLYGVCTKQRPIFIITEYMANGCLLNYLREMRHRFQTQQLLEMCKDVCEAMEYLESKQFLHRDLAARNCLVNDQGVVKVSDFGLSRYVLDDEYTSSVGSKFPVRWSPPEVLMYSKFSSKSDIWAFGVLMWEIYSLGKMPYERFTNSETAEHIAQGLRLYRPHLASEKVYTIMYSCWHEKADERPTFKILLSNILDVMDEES

For the molecule `Cc1c(NC(=O)c2ccc(C(C)(C)C)cc2)cccc1-c1nc(Nc2ccc(C(=O)N3CCOCC3)cc2)c2nccn2n1` [Example 1, 4-tert-Butyl-N-(2-methyl-3-(4-(4-(morpholine-4-carbonyl)phenylamino)imidazo[1,2-f][1,2,4]triazin-2-yl)phenyl)benzamide], the concentration for half-maximal inhibition (IC50) in the assay on Ramos RA1 B cells was 0.028 µM; at human recombinant Btk it was 46 nM.
